The text below walks through data of patent publication US10208059B2, “Heterocyclic modulators of HIF activity for treatment of disease” (Board of Regents, University of Texas System, priority 2012, dated 2019).

Where a name gives a salt, the structure may show the parent alone.

The test deals with 293T-HRE-GFP-luc cells. The experiment in a line: Cell-based reporter assay for IC50 determinations. The note with it: hypoxia 6 hrs (1% O2), luminescence, read-out: IC50 Classification. On the procedure: Cell-Based Reporter Assay for IC50 Determinations
293T-HRE-GFP-luc cells were routinely maintained in DMEM media (high glucose version with GlutaMAX and HEPES, Gibco, catalog #10564) supplemented with 10% fetal bovine serum and 2 μg/mL puromycin (Invitrogen, catalog #A11138-03) using a humidified incubator (normoxia conditions consisting of 37° C., 5% CO2 and ambient O2).
In preparation for the reporter assay, cells were harvested and resuspended in DMEM media (high glucose version with GlutaMAX and HEPES) supplemented with 10% fetal bovine serum. Cells were inoculated into 384-well white Culturplates (Perkin Elmer catalog #6007680) at a density of 12,000 cells/well in a volume of 30 μL. The microplates were incubated overnight (approximately 17-19 hours) at 37° C. with 5% CO2 and ambient O2. Stock solutions of the test compounds were prepared in DMSO (Sigma, Catalog #D2650) and serially diluted 1:3 using DMSO. Compounds were additionally diluted (1:50) with culturemedium and 10 μL were added per well to the Culturplate. Following a 30 min. incubation under normoxia conditions, the plates were incubated in hypoxia for 6 hrs. (37° C., 5% CO2 and 1% O2). Steadylite Plus (Perkin Elmer, catalog #6016751) was then added (40 μL/well), the plates were mixed on an orbital shaker at room temperature in the dark for 15 min., and luminescence was measured using an Envision plate reader (Perkin Elmer). IC50 values were calculated using a four-parameter logistic curve fit. Results are shown below in Table 2; ND indicates no data.
(In general: A reporter such as luciferase makes a cellular process visible.)
`Cc1nc(-c2nc(-c3ccc(OC(F)F)cc3)no2)nn1Cc1ccnc(N2CCN(C)CC2)c1` [Example 23, 4-(4-((3-(3-(4-(Difluoromethoxy)phenyl)-1,2,4-oxadiazol-5-yl)-5-methyl-1H-1,2,4-triazol-1-yl)methyl)pyridin-1-ium-2-yl)-1-methylpiperazin-1-ium bis-trifluoroacetate]: the half-inhibitory concentration (IC50) was 100 to 1000 nM.

Take `Cc1nc(-c2nc(-c3ccc(OC(F)(F)F)cc3)no2)nn1Cc1ccccc1` [Example 24, 5-(1-Benzyl-5-methyl-1H-1,2,4-triazol-3-yl)-3-(4-(trifluoromethoxy)phenyl)-1,2,4-oxadiazole]: the half-inhibitory concentration (IC50) was in the range of 100 to 1000 nM. The result for `Cc1nc(-c2nc(-c3ccc(OC(F)(F)F)cc3)no2)nn1Cc1cccc(N2CCN(C)CC2)c1` [Example 25, 1-methyl-4-(3-((5-methyl-3-(3-(4-(trifluoromethoxy)phenyl)-1,2,4-oxadiazol-5-yl)-1H-1,2,4-triazol-1-yl)methyl)phenyl)piperazin-1-ium trifluoroacetate] reads less than 100 nM.

On to `Cc1nc(-c2nc(-c3ccc(OC(F)(F)F)cc3)no2)nn1Cc1ccnc(N2CCC(O)CC2)c1` [Example 26, 1-(4-((5-Methyl-3-(3-(4-(trifluoromethoxy)phenyl)-1,2,4-oxadiazol-5-yl)-1H-1,2,4-triazol-1-yl)methyl)pyridin-2-yl)piperidin-4-ol], for which the half-maximal inhibitory concentration (IC50) is less than 100 nM.

For `Cc1nc(-c2nc(-c3ccc(OC(F)(F)F)cc3)no2)nn1Cc1ccnc(N2CCC(C#N)CC2)c1` [Example 27, 1-(4-((5-Methyl-3-(3-(4-(trifluoromethoxy)phenyl)-1,2,4-oxadiazol-5-yl)-1H-1,2,4-triazol-1-yl)methyl)pyridin-2-yl)piperidine-4-carbonitrile], the IC50 is less than 100 nM.

Consider `Cc1nc(-c2nc(-c3ccc(OC(F)(F)F)cc3)no2)nn1Cc1ccnc(N2CCCC2)c1` [Example 28, 5-(5-Methyl-1-((2-(pyrrolidin-1-yl)pyridin-4-yl)methyl)-1H-1,2,4-triazol-3-yl)-3-(4-(trifluoromethoxy)phenyl)-1,2,4-oxadiazole], for which the IC50 is less than 100 nM. The result for `Cc1nc(-c2nc(-c3ccccc3)no2)nn1Cc1ccnc(N2CCN(C)CC2)c1` [Example 29, 1-Methyl-4-(4-((5-methyl-3-(3-phenyl-1,2,4-oxadiazol-5-yl)-1H-1,2,4-triazol-1-yl)methyl)pyridin-1-ium-2-yl)piperazin-1-ium bis-trifluoroacetate] reads 1000 to 10000 nM. The result for `Cc1nc(-c2nc(-c3ccc(OC(F)(F)F)cc3)no2)nn1Cc1cccc(C(=O)NCCN(C)C)c1` [Example 30, N-(2-(Dimethylamino)ethyl)-3-((5-methyl-3-(3-(4-(trifluoromethoxy)phenyl)-1,2,4-oxadiazol-5-yl)-1H-1,2,4-triazol-1-yl)methyl)benzamide] reads less than 100 nM; that for `Cc1nc(-c2nc(-c3ccc(OC(F)(F)F)cc3)no2)nn1Cc1ccnc(N2CCC(C)(C)CC2)c1` [Example 31, 5-(1-((2-(4,4-Dimethylpiperidin-1-yl)pyridin-4-yl)methyl)-5-methyl-1H-1,2,4-triazol-3-yl)-3-(4-(trifluoromethoxy)phenyl)-1,2,4-oxadiazole], less than 100 nM.

Regarding `COCCCNc1cc(Cn2nc(-c3nc(-c4ccc(OC(F)(F)F)cc4)no3)nc2C)ccn1` [Example 32, N-(3-Methoxypropyl)-4-((5-methyl-3-(3-(4-(trifluoromethoxy)phenyl)-1,2,4-oxadiazol-5-yl)-1H-1,2,4-triazol-1-yl)methyl)pyridin-2-amine], the IC50 was less than 100 nM.

On to `CCc1nc(-c2nc(-c3ccc(OC(F)(F)F)cc3)no2)nn1Cc1ccccc1` [Example 33, 5-(1-Benzyl-5-ethyl-1H-1,2,4-triazol-3-yl)-3-(4-(trifluoromethoxy)phenyl)-1,2,4-oxadiazole], for which the IC50 is 1000 to 10000 nM. Regarding `FC(F)(F)Oc1ccc(-c2noc(-c3nc(C4CC4)n(Cc4ccccc4)n3)n2)cc1` [Example 34, 5-(1-Benzyl-5-cyclopropyl-1H-1,2,4-triazol-3-yl)-3-(4-(trifluoromethoxy)phenyl)-1,2,4-oxadiazole], the IC50 was 1000 to 10000 nM. In the case of `Cc1nc(-c2nc(-c3ccc(OC(F)(F)F)cc3)no2)nn1Cc1ccnc(NCCN2CCOCC2)c1` [Example 35, 4-((5-Methyl-3-(3-(4-(trifluoromethoxy)phenyl)-1,2,4-oxadiazol-5-yl)-1H-1,2,4-triazol-1-yl)methyl)-N-(2-morpholinoethyl)pyridin-2-amine], the concentration for half-maximal inhibition (IC50) was less than 100 nM. Next, `CNc1cc(Cn2nc(-c3nc(-c4ccc(OC(F)(F)F)cc4)no3)nc2C)ccn1` [Example 36, N-Methyl-4-((5-methyl-3-(3-(4-(trifluoromethoxy)phenyl)-1,2,4-oxadiazol-5-yl)-1H-1,2,4-triazol-1-yl)methyl)pyridin-2-amine]: less than 100 nM. Take `Cc1nc(-c2nc(-c3ccc(OC(F)(F)F)cc3)no2)nn1Cc1ccnc(N(C)C)c1` [Example 37, N,N-Dimethyl-4-((5-methyl-3-(3-(4-(trifluoromethoxy)phenyl)-1,2,4-oxadiazol-5-yl)-1H-1,2,4-triazol-1-yl)methyl)pyridin-2-amine]: the IC50 was less than 100 nM. The result for `CC(=O)N1CCN(c2cc(Cn3nc(-c4nc(-c5ccc(OC(F)(F)F)cc5)no4)nc3C)ccn2)CC1` [Example 38, 1-(4-(4-((5-Methyl-3-(3-(4-(trifluoromethoxy)phenyl)-1,2,4-oxadiazol-5-yl)-1H-1,2,4-triazol-1-yl)methyl)pyridin-2-yl)piperazin-1-yl)ethanone] reads less than 100 nM. The result for `Cc1nc(-c2nc(-c3ccc(OC(F)(F)F)cc3)no2)nn1Cc1cccc(C(=O)NCCO)c1` [Example 39, N-(2-Hydroxyethyl)-3-((5-methyl-3-(3-(4-(trifluoromethoxy)phenyl)-1,2,4-oxadiazol-5-yl)-1H-1,2,4-triazol-1-yl)methyl)benzamide] reads 100 to 1000 nM; that for `Cc1nc(-c2nc(-c3ccc(OC(F)(F)F)cc3)no2)nn1Cc1cccc(C(=O)N(C)C)c1` [Example 40, N,N-Dimethyl-3-((5-methyl-3-(3-(4-(trifluoromethoxy)phenyl)-1,2,4-oxadiazol-5-yl)-1H-1,2,4-triazol-1-yl)methyl)benzamide], less than 100 nM. Next, `COCCCNC(=O)c1ccc(Cn2nc(-c3nc(-c4ccc(OC(F)(F)F)cc4)no3)nc2C)cc1` [Example 41, N-(3-Methoxypropyl)-4-((5-methyl-3-(3-(4-(trifluoromethoxy)phenyl)-1,2,4-oxadiazol-5-yl)-1H-1,2,4-triazol-1-yl)methyl)benzamide]: 100 to 1000 nM; `Cc1nc(-c2nc(-c3ccc(OC(F)(F)F)cc3)no2)nn1Cc1ccc(C(=O)N2CCN(C)CC2)cc1` [Example 42, (4-((5-Methyl-3-(3-(4-(trifluoromethoxy)phenyl)-1,2,4-oxadiazol-5-yl)-1H-1,2,4-triazol-1-yl)methyl)phenyl)(4-methylpiperazin-1-yl)methanone]: 100 to 1000 nM. For the molecule `Cc1nc(-c2nc(-c3ccc(OC(F)(F)F)cc3)no2)nn1Cc1ccnc(N2CCS(=O)(=O)CC2)c1` [Example 43, 2-(1,1-Dioxidothiomorpholino)-4-((5-methyl-3-(3-(4-(trifluoromethoxy)phenyl)-1,2,4-oxadiazol-5-yl)-1H-1,2,4-triazol-1-yl)methyl)pyridin-1-ium trifluoroacetate], the IC50 was 100 to 1000 nM.

What is called IC50 is the concentration needed to halve the response being measured.
